Experimental findings from ChEMBL document CHEMBL1138490, “Gamma-aminobutyric acid amides of nortriptyline and fluoxetine display improved pain suppressing activity” (2009) are described below.

Active and inactive are the calls of the source. The calls are words filed in the database; no cut-off is given here.

In experiment [1] the test system is Mus musculus. As to the kind of experiment: Antinociceptive activity in BALB/c mouse assessed as […] at 10 mg/kg, po equimolar dose of nortriptyline after 240 mins by hot plate method. In kind it is functional, organism-based. The arrangement: dose 10 mg/kg. In general terms: In hot-plate and tail-flick tests a longer latency is read as antinociception.

The test system of experiment [2] is Mus musculus. As to the kind of experiment: Anxiolytic activity in BALB/c mouse assessed as immobility at equimolar oral dose relative to 5 mg/kg fluoxetine after 90 mins by open-field test (RVb= 458.4+/-41 s). It counts as functional.
The subject of experiment [3] is Mus musculus. As to the kind of experiment: Antinociceptive activity in BALB/c mouse assessed as […] at 20 to 40 mg/kg, po equimolar dose of nortriptyline after 240 mins by hot plate method. It counts as functional, organism-based.
Experiment [4] concerns Mus musculus. As to the kind of experiment: Anxiolytic activity in BALB/c mouse assessed as distance moved at equimolar oral dose relative to 20 mg/kg fluoxetine after 90 mins by open-field test (RVb= 8485+/-610 cm). It counts as functional.
Experiment [5] concerns Mus musculus. Nature of the experiment: Antinociceptive activity in BALB/c mouse assessed as increase in paw withdrawal latency time at 10 mg/kg, po equimolar dose of fluoxetine daily measured after 3 to 5 hrs on day 1 to 11. It counts as functional, organism-based. Also on record: dose 10 mg/kg.
The test system of experiment [6] is Mus musculus. Nature of the experiment: Anxiolytic activity in BALB/c mouse assessed as velocity at equimolar oral dose relative to 5 mg/kg fluoxetine after 90 mins by open-field test (RVb= 7.07+/-0.51 cm/s). In kind it is functional.
For experiment [7], the system named is Mus musculus. Nature of the experiment: Antinociceptive activity in BALB/c mouse assessed as paw withdrawal latency at 0.4 mg/kg, po equimolar dose of nortriptyline after 2 to 4 hrs by hot plate method. In kind it is functional, organism-based. Also on record: dose 0.4 mg/kg.
Experiment [8] deals with Mus musculus. As to the kind of experiment: Antinociceptive activity against formalin-induced neurogenic pain in BALB/c mouse assessed paw licking, biting or shaking at to 30 mg/kg, po equimolar dose of fluoxetine administered 2 hrs before formalin challenge measured relative to control. In kind it is functional, organism-based. The arrangement: dose 30 mg/kg.
In experiment [9] the test system is Mus musculus. Nature of the experiment: Antinociceptive activity in BALB/c mouse assessed as paw withdrawal latency at 0.4 mg/kg, po after 2 to 4 hrs by hot plate method. In kind it is functional, organism-based. The arrangement: dose 0.4 mg/kg.
The subject of experiment [10] is Mus musculus. As to the kind of experiment: Anxiolytic activity in BALB/c mouse assessed as immobility at equimolar oral dose relative to 10 mg/kg fluoxetine after 90 mins by open-field test (RVb= 458.4+/-41 s). It counts as functional.
In experiment [11] the test system is Mus musculus. As to the kind of experiment: Anxiolytic activity in BALB/c mouse assessed as distance moved at equimolar oral dose relative to 10 mg/kg fluoxetine after 90 mins by open-field test (RVb= 8485+/-610 cm). It counts as functional.
Experiment [12] concerns Mus musculus. Nature of the experiment: Antinociceptive activity against formalin-induced neurogenic pain in BALB/c mouse assessed paw licking, biting or shaking during at 10 mg/kg, po equimolar oral dose fluoxetine administered 2 hrs before formalin challenge measured relative to control. It counts as functional, organism-based. The arrangement: dose 10 mg/kg.
For experiment [13], the system named is Mus musculus. Nature of the experiment: Anxiolytic activity in BALB/c mouse assessed as distance moved at equimolar oral dose relative to 5 mg/kg fluoxetine after 90 mins by open-field test (RVb= 8485+/-610 cm). In kind it is functional.
The test system of experiment [14] is Mus musculus. As to the kind of experiment: Antinociceptive activity against formalin-induced neurogenic pain in BALB/c mouse assessed paw licking, biting or shaking during at 10 mg/kg, po administered 2 hrs before formalin challenge measured relative to control. It counts as functional, organism-based. The arrangement: dose 10 mg/kg.
Experiment [15] has as its system Mus musculus. As to the kind of experiment: Anxiolytic activity in BALB/c mouse assessed as immobility at equimolar oral dose relative to 20 mg/kg fluoxetine after 90 mins by open-field test (RVb= 458.4+/-41 s). In kind it is functional.
The test system of experiment [16] is Mus musculus. Nature of the experiment: Anxiolytic activity in BALB/c mouse assessed as velocity at equimolar oral dose relative to 10 mg/kg fluoxetine after 90 mins by open-field test (RVb= 7.07+/-0.51 cm/s). It counts as functional.
In experiment [17] the test system is Mus musculus. As to the kind of experiment: Antinociceptive activity against formalin-induced neurogenic pain in BALB/c mouse assessed paw licking, biting or shaking at 30 mg/kg, po administered 2 hrs before formalin challenge measured relative to control. The arrangement: dose 30 mg/kg. It counts as functional, organism-based.
Experiment [18] has as its system Mus musculus. As to the kind of experiment: Anxiolytic activity in BALB/c mouse assessed as velocity at equimolar oral dose relative to 20 mg/kg fluoxetine after 90 mins by open-field test (RVb= 7.07+/-0.51 cm/s). It counts as functional.
For experiment [19], the system named is Mus musculus. As to the kind of experiment: Antinociceptive activity in BALB/c mouse assessed as increase in paw withdrawal latency time at 10 mg/kg, po daily measured after 3 to 5 hrs on day 1 on day 1 to 11. In kind it is functional, organism-based. The arrangement: dose 10 mg/kg.

For the compound `CN(CCC(Oc1ccc(C(F)(F)F)cc1)c1ccccc1)C(=O)CCCN.Cl` (centres undefined), the result in the experiment on Mus musculus [1], with Mus musculus [3], in the experiment with Mus musculus [5], in the experiment on Mus musculus [7], in the experiment on Mus musculus [8] and in the experiment with Mus musculus [9] was Active. The result in the experiment with Mus musculus [12], with Mus musculus [14], in the experiment with Mus musculus [17] and in the experiment with Mus musculus [19] was Active. Also, the Activity in the experiment on Mus musculus [2] is on record as 501.5 s; in the experiment with Mus musculus [4], 6462 cm; in the experiment on Mus musculus [6], 6.47 cm/s; in the experiment with Mus musculus [10], 536.3 s; with Mus musculus [11], 8003 cm; in the experiment with Mus musculus [13], 7767 cm. The Activity in the experiment with Mus musculus [15] is given as 639.9 s; in the experiment with Mus musculus [16], 6.67 cm/s; in the experiment with Mus musculus [18], 5.39 cm/s.
